Earlier results on three compounds are cited in patent publication US20020042084A1, “Detection of NAALADase inhibitors” (Boehringer Ingelheim Pharma KG, priority 2000, published 2002).

Structures are written as SMILES. Residues, ends and D or L forms follow the SMILES beside them.

This series has as its system NAALADase. The conditions noted are these: substrate specificity; Serval et al. 1992.
For the compound `C[C@H](N)C(=O)N[C@@H](CCC(=O)O)C(=O)O` [Ala-Glu] (H-Ala-Glu-OH), the “hydrolysis by NAALADase” value is given as “not hydrolyzed”.
Consider `CC(=O)NC(CC(=O)O)C(=O)NC(CCC(=O)O)C(=O)O` [D-NAAG] (Ac-Asp-Glu-OH; configuration not given here), for which the “hydrolysis by NAALADase” value is “not hydrolyzed”.
As for `CC(=O)N[C@@H](CC(=O)N[C@@H](CCC(=O)O)C(=O)O)C(=O)O` [β-NAAG], the “hydrolysis by NAALADase” value is on record as “not hydrolyzed”.
